In ChEMBL document CHEMBL5728605, “Aromatic acetylene or aromatic ethylene compound, intermediate, preparation method, pharmaceutical composition and use thereof” (2021):
pIC50: −log10 of the molar value.

biological target: Programmed cell death protein 1/Programmed cell death 1 ligand 1 (Homo sapiens, UniProt Q15116+Q9NZQ7); assay: Homogeneous Time-Resolved Fluorescence (HTRF) Binding Assay: 1. The compound was formulated to 10 concentrations with a 3-fold gradient with 100% DMSO.2. The solution of the compound in DMSO was added to Dilute Buffer, mixed thoroughly, then transferred to a 96-well plate.3. PD-L1 was diluted with Dilute Buffer, then added to the above 96-well plate.4. PD-1 was diluted with Dilute Buffer and added to the above 96-well plate, which was then incubated at room temperature for 30 minutes.5. A portion of anti-tag1-Eu and a portion of anti-tag2-XL665 were added to Detection Buffer, mixed thoroughly and transferred to the above 96-well plate.6. The mixture in the above 96-well plate was incubated at room temperature for 1 to 24 hours.7. HTRF values were read with Envision.; type: protein-complex assay
Sequence (Q15116 whole entry): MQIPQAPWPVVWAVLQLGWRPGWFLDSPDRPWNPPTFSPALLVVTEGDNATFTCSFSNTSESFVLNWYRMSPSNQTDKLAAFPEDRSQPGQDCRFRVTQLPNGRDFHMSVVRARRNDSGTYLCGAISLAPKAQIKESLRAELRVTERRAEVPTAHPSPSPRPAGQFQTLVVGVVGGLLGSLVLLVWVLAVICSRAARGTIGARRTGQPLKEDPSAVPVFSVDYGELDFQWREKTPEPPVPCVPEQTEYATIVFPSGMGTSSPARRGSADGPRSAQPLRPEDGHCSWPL
Sequence (Q9NZQ7 whole entry): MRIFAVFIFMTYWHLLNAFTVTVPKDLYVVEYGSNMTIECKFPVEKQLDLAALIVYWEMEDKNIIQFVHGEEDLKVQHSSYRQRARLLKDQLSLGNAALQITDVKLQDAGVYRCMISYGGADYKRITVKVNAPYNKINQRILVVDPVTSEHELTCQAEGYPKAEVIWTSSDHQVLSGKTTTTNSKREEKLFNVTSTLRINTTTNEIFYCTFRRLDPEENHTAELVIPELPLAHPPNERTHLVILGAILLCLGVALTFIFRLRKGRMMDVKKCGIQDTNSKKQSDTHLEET

Structure (SMILES)	pIC50
COc1cc(/C=C/c2cccc(-c3ccccc3)c2C)cc(OC)c1CN[C@H](CO)C(=O)O	7.10
COc1cc(/C=C/c2cccc(-c3ccccc3)c2C)cc(OC)c1CN[C@@H](C)C(=O)O	6.77
COc1cc(/C=C/c2cccc(-c3ccccc3)c2C)cc(OC)c1CN1CCCC[C@H]1C(=O)O	7.22
COc1cc(/C=C/c2cccc(-c3ccccc3)c2C)cc(OC)c1CN[C@@H](CO)C(=O)O	7.30
